Our source for the Ki and IC50 values is US12286435B2, “Compound having benzo seven-membered ring structure, preparation method therefor, and use thereof” (BIONNA (BEIJING) MEDICAL TECHNOLOGY CO., LTD., priority 2019, dated 2025).

Assay [1] concerns the target BRD4 BD1 protein (Homo sapiens (Human), UniProt O60885). As to the kind of experiment: Fluorescence polarization binding affinity (Ki) with BRD4 BD1 protein. Particulars: fluorescence polarization; Ki calculated from IC50.
For assay [2], the target named is BRD4 BD2 protein (Homo sapiens (Human), UniProt O60885). As to the kind of experiment: Fluorescence polarization binding affinity (Ki) with BRD4 BD2 protein. The following applies: fluorescence polarization; Ki calculated from IC50.
Assay [3] has as its system multiple myeloma MM.1S cell line. As to the kind of experiment: Cell viability (CCK-8), multiple myeloma MM.1S. The following applies: MM.1S cells, 4 days, CCK-8, 50% inhibition of cell growth. It counts as cell-based. The method, then: 3. Determination of cell viability of the compound
The sample to be tested was dissolved with 100% dimethyl sulfoxide to prepare a 20 mM stock solution of the compound, which was diluted with 100% dimethyl sulfoxide to the highest compound concentration required for the experiment (2.5 mM).
First, 145 uL of a complete cell culture medium was added to wells B1-G1 of a 96-well flat-bottomed tansparent cell culture plate, and 100 uL of the complete medium was added to wells B2-G12, respectively. Then, 5 uL of the 2.5 mM solution of the compound was added to wells B1-D1 and E1-G1 respectively, and then diluted gradiently by 3-folds to B12-D12 and E12-G12 in sequence. Finally, 50 uL of the solution of the cells to be tested was added to each well, with about 3000-5000 cells per well, and a total volume of 150 uL per well.
In the experiment, in addition to the tested compound, two other control groups were set up: 1) a control group adding the cells and the complete medium, but without adding the compound; 2) a control group adding the complete medium only, without adding the cells and the compound. The 96-well plate was placed in a 37° C. cell culture incubator containing 5% carbon dioxide for 4 days, added with 15 uL of a CCK-8 reagent per well, and then incubated at 37° C. for 2-4 hours. The 96-well plate was read on a TECAN microplate reader, and the absorbance value at 450 nm wavelength was taken.
The effect of different concentrations of the compound on cell viability was calculated by the following equation: [absorption value of the experimental group−absorption value of pure cell culture medium without the cells or the compound]/[absorption value of the control group with the tumor cells but no testing compound−absorption value of pure cell culture medium without the cell or the compound]×100%.
The above data were precessed by software, and the IC50 value was the concentration of the compound corresponding to the 50% inhibition rate of cell growth.
Based on the above test method of the compound on cell viability, a variety of […] cancer cell lines were tested, using multiple myeloma MM.1S, breast cancer MDA-MB-231 and leukemia MV4-11 cell lines as exemples. Using this test method, the IC50 values of partial compounds in the examples of the present invention measured in multiple myeloma MM.1S, breast cancer MDA-MB-231 cell lines and leukemia MV4-11 cell lines were shown in Table 2.

Usually Ki stands for a dissociation constant, usually derived from enzyme kinetics or from competition with a known ligand. A word on the IC50: it is the concentration at which inhibition is half-maximal. Read a low IC50 as higher potency. Consider `Cc1nnn2c1-c1ccc(-c3cnn(C)c3)cc1C(Nc1ccc(C(=O)O)cc1)CC2` (stereo not drawn) [LB20, 4-((1-methyl-9-(1-methyl-1H-pyrazol-4-yl)-6,7-dihydro-5H-benzo[c][1,2,3]triazolo[1,5-a]azepin-7-yl)amino)benzoic acid], for which the Ki in assay [1] is 1.72 µM; in assay [2], 0.0828 µM. For the same compound, in assay [3] (Homo sapiens, MM1.S, 96 h), half-maximal inhibition (IC50) was put at 2.46 µM.
As to `Cc1nnn2c1-c1ccc(-c3cnn(C)c3)cc1C(Nc1ccc(CCO)cc1)CC2` (stereo not drawn) [LB24, 2-(4-((1-methyl-9-(1-methyl-1H-pyrazol-4-yl)-6,7-dihydro-5H-benzo[c][1,2,3]triazolo[1,5-a]azepin-7-yl)amino)phenyl)ethan-1-ol], the Ki in assay [1] is 0.0645 µM; in assay [2], 0.0224 µM. Moreover, in assay [3] (Homo sapiens, MM1.S, 96 h), the IC50 was found to be 0.0517 µM.
For `Cc1nnn2c1-c1ccc(-c3cnn(C)c3)cc1C(Nc1ccc(C(N)=O)cc1)CC2` (stereo not drawn) [LB32, 4-((1-methyl-9-(1-methyl-1H-pyrazol-4-yl)-6,7-dihydro-5H-benzo[c][1,2,3]triazolo[1,5-a]azepin-7-yl)amino)benzamide], in that order: 0.235 µM, 0.0437 µM and 0.602 µM.
`Cc1nnn2c1-c1ccc(-c3cnn(C)c3)cc1C(Nc1ccc(CO)cc1)CC2` (stereo not drawn) [LB35, (4-((1-methyl-9-(1-methyl-1H-pyrazol-4-yl)-6,7-dihydro-5H-benzo[c][1,2,3]triazolo[1,5-a]azepin-7-yl)amino)phenyl)methanol]: the figures for the Ki in assay [1] and in assay [2] were 0.614 µM and 0.0239 µM, respectively. Moreover, inhibition in assay [3] (Homo sapiens, MM1.S, 96 h) was half-maximal at 0.0365 µM (IC50).
For `Cc1nnn2c1-c1ccc(-c3cnn(C)c3)cc1C(Nc1ccc(CC(=O)O)cc1)CC2` (stereo not drawn) [LB36, 2-(4-((1-methyl-9-(1-methyl-1H-pyrazol-4-yl)-6,7-dihydro-5H-benzo[c][1,2,3]triazolo[1,5-a]azepin-7-yl)amino)phenyl)acetic acid], in that order: 0.0976 µM, 0.0425 µM and 0.412 µM.
As to `CNC(=O)Cc1ccc(NC2CCn3nnc(C)c3-c3ccc(-c4cnn(C)c4)cc32)cc1` (stereo not drawn) [LB42, N-methyl-2-(4-((1-methyl-9-(1-methyl-1H-pyrazol-4-yl)-6,7-dihydro-5H-benzo[c][1,2,3]triazolo[1,5-a]azepin-7-yl)amino)phenyl)acetamide], the Ki in assay [1] is 0.0345 µM; in assay [2], 0.00819 µM. Also, it took 0.016 µM to reach half-maximal inhibition in assay [3] (IC50).
With `Cc1nnn2c1-c1ccc(-c3cnn(C)c3)cc1C(Nc1cccc(CC(=O)O)c1)CC2` (stereo not drawn) [LB62, 2-(3-((1-methyl-9-(1-methyl-1H-pyrazol-4-yl)-6,7-dihydro-5H-benzo[c][1,2,3]triazolo[1,5-a]azepin-7-yl)amino)phenyl) acetic acid], the inhibition constant (Ki) in assay [1] is 0.229 µM; in assay [2], 0.013 µM. Half-maximal inhibition in assay [3] (Homo sapiens, MM1.S, 96 h) (IC50) required 14 µM.
Consider `COC(=O)Cc1cccc(NC2CCn3nnc(C)c3-c3ccc(-c4cnn(C)c4)cc32)c1` (stereo not drawn) [LB63, methyl 2-(3-((1-methyl-9-(1-methyl-1H-pyrazol-4-yl)-6,7-dihydro-5H-benzo[c][1,2,3]triazolo[1,5-a]azepin-7-yl)amino)phenyl)acetate], for which the Ki in assay [1] was 0.0778 µM; in assay [2] it was 0.014 µM. The same compound yielded a half-maximal inhibitory concentration (IC50) in assay [3] (Homo sapiens, MM1.S, 96 h) of 0.16 µM.
With `Cc1nnn2c1-c1ccc(-c3cnn(C)c3)cc1C(Nc1ccc(OCCO)cc1)CC2` (stereo not drawn) [LB68, 2-(4-((1-methyl-9-(1-methyl-1H-pyrazol-4-yl)-6,7-dihydro-5H-benzo[c][1,2,3]triazolo[1,5-a]azepin-7-yl)amino)phenoxy)ethanol], the values for the Ki in assay [1] and in assay [2] were 0.0685 µM and 0.013 µM, respectively. The IC50 in assay [3] (Homo sapiens, MM1.S, 96 h) amounted to 0.112 µM.
In the case of `Cc1nnn2c1-c1ccc(-c3cnn(C)c3)cc1C(Nc1cccc(OCCO)c1)CC2` (stereo not drawn) [LB77, 2-(3-((1-methyl-9-(1-methyl-1H-pyrazol-4-yl)-6,7-dihydro-5H-benzo[c][1,2,3]triazolo[1,5-a]azepin-7-yl)amino)phenoxy)ethanol], the Ki in assay [1] was 0.0999 µM; in assay [2], 0.006 µM. The compound also had an IC50 in assay [3] (Homo sapiens, MM1.S, 96 h) of 0.0717 µM.
For `Cc1nnn2c1-c1ccc(-c3cnn(C)c3)cc1C(Nc1ccc(C(O)(C(F)(F)F)C(F)(F)F)cc1)CC2` (stereo not drawn) [LB83, 1,1,1,3,3,3-hexafluoro-2-(4-((1-methyl-9-(1-methyl-1H-pyrazol-4-yl)-6,7-dihydro-5H-Benzo[c][1,2,3]triazolo[1,5-a]azepin-7-yl)amino)phenyl)propan-2-ol], in that order: 0.18 µM, 0.0384 µM and 0.25 µM.
In the same order, the values of `Cc1nnn2c1-c1ccc(-c3cnn(C)c3)cc1C(Nc1cccc3ncccc13)CC2` (stereo not drawn) [LB86, 1-methyl-9-(1-methyl-1H-pyrazol-4-yl)-N-(quinolin-5-yl)-6,7-dihydro-5H-benzo[c][1,2,3]triazolo[1,5-a]azepin-7-amine] are 0.056 µM, 0.014 µM and 0.0451 µM.
In the same order, the values of `Cc1nnn2c1-c1ccc(-c3cnn(C)c3)cc1C(Nc1ccc3ncccc3c1)CC2` (stereo not drawn) [LB88, 1-methyl-9-(1-methyl-1H-pyrazol-4-yl)-N-(quinolin-6-yl)-6,7-dihydro-5H-benzo[c][1,2,3]triazolo[1,5-a]azepin-7-amine] are 0.137 µM, 0.0151 µM and 0.0243 µM.
For `Cc1nnn2c1-c1ccc(-c3cnn(C)c3)cc1C(Nc1ccc3cccnc3c1)CC2` (stereo not drawn) [LB89, 1-methyl-9-(1-methyl-1H-pyrazol-4-yl)-N-(quinolin-7-yl)-6,7-dihydro-5H-benzo[c][1,2,3]triazolo[1,5-a] azepin-7-amine], the figures for the inhibition constant Ki in assay [1] and in assay [2] were 0.426 µM and 0.0505 µM, respectively. In assay [3] (Homo sapiens, MM1.S, 96 h), this compound gave an IC50 of 0.143 µM.
Take `Cc1nnn2c1-c1ccc(-c3cnn(C)c3)cc1C(Nc1ccccc1OCCO)CC2` (stereo not drawn) [LB90, 2-(2-((1-methyl-9-(1-methyl-1H-pyrazol-4-yl)-6,7-dihydro-5H-benzo[c][1,2,3]triazolo[1,5-a]azepin-7-yl)amino)phenoxy)ethanol]: the Ki is 0.134 µM in assay [1] and 0.0165 µM in assay [2]. Besides, half-maximal inhibition in assay [3] (Homo sapiens, MM1.S, 96 h) (IC50) was put at 0.0519 µM.
In the same order, the values of `Cc1nnn2c1-c1ccc(-c3cnn(C)c3)cc1C(Nc1cccc3cccnc13)CC2` (stereo not drawn) [LB91, 1-methyl-9-(1-methyl-1H-pyrazol-4-yl)-N-(quinolin-8-yl)-6,7-dihydro-5H-benzo[c][1,2,3]triazolo[1,5-a]azepin-7-amine] are 0.0814 µM, 0.0116 µM and 0.0134 µM.
Turning to `COC(=O)c1cccc(NC2CCn3nnc(C)c3-c3ccc(-c4cnn(C)c4)cc32)c1` (stereo not drawn) [LB92, methyl 3-((1-methyl-9-(1-methyl-1H-pyrazol-4-yl)-6,7-dihydro-5H-benzo[c][1,2,3]triazolo[1,5-a]azepin-7-yl)amino)benzoate], the figures for the Ki in assay [1] and in assay [2] were 0.133 µM and 0.0179 µM, respectively. Also, in assay [3] (Homo sapiens, MM1.S, 96 h), half-maximal inhibition (IC50) required 0.121 µM.
For the compound `Cc1nnn2c1-c1ccc(-c3cnn(C)c3)cc1C(Nc1cccc(C(=O)O)c1)CC2` (stereo not drawn) [LB97, 3-((1-methyl-9-(1-methyl-1H-pyrazol-4-yl)-6,7-dihydro-5H-benzo[c][1,2,3]triazolo[1,5-a]azepin-7-yl)amino)benzoic acid], the Ki in assay [1] was 0.355 µM; in assay [2], 0.0279 µM. Besides, the IC50 in assay [3] (Homo sapiens, MM1.S, 96 h) was determined as 8.16 µM.
Take `Cc1nnn2c1-c1ccc(-c3cnn(C)c3)cc1C(Nc1ccc3[nH]ccc3c1)CC2` (stereo not drawn) [LB98, N-(1H-indo1-5-yl)-1-methyl-9-(1-methyl-1H-pyrazol-4-yl)-6,7-dihydro-5H-benzo[c][1,2,3]triazolo[1,5-a]azepin-7-amine]: the Ki in assay [1] was 0.0524 µM; in assay [2] it was 0.0091 µM. The compound also displayed an IC50 in assay [3] (Homo sapiens, MM1.S, 96 h) of 0.0215 µM.
